In US8536167B2, “Methods for treating ophthalmic, otic, or nasal infections” (Alcon Research, Ltd., priority 2009, dated 2013):
Converted amounts (≈) assume the structure as drawn. Where two headings read alike, the source gives them in different places.

Key:
Enterococcus faecalis = assay: In vitro antimicrobial susceptibility test (MIC50); assay type: cell-based
Protocol: (§1) A finafloxacin composition at pH 5.8 was compared to ciprofloxacin (pH 5.8) and ofloxacin (pH 5.8 and pH 7) compositions using standard in vitro antimicrobial susceptibility tests (M07-08 Methods for Dilution Antimicrobial Susceptibility Tests for Bacteria that Grow Aerobically; Approved Standard-Eighth Edition (January 2009, Clinical and Laboratory Standards Institute), herein incorporated by reference). Minimum inhibitory concentrations (MIC50) were determined using Gram-positive and Gram-negative test organisms commonly found in otic and ophthalmic infections. The MIC50 was the lowest concentration of antibiotic that prevented growth of the test organism, as determined visually by a lack of turbidity.
(§2) The results of the experiment are presented below in TABLE 1 (Gram-positive organisms) and TABLE 2 (Gram-negative organisms).

Escherichia coli = assay: In vitro antimicrobial susceptibility test (MIC50); assay type: cell-based
Protocol: as §1, §2

Haemophilia influenzae = assay: In vitro antimicrobial susceptibility test (MIC50); assay type: cell-based; settings: N = 10
Protocol: as §1, §2

Proteus mirabilis = assay: In vitro antimicrobial susceptibility test (MIC50); assay type: cell-based
Protocol: as §1, §2

[1] = tested on: Pseudomonas aeruginosa - Ciprofloxacin resistant; assay: In vitro antimicrobial susceptibility test (MIC50); assay type: cell-based
Protocol: as §1, §2

[2] = tested on: Pseudomonas aeruginosa - Ciprofloxacin sensitive; assay: In vitro antimicrobial susceptibility test (MIC50); assay type: cell-based
Protocol: as §1, §2

Pseudomonas otitidis = assay: In vitro antimicrobial susceptibility test (MIC50); assay type: cell-based; settings: Metapseudomonas otitidis, N = 10
Protocol: as §1, §2

[3] = tested on: Staphylococcus aureus - Ciprofloxacin resistant; assay: In vitro antimicrobial susceptibility test (MIC50); assay type: cell-based
Protocol: as §1, §2

[4] = tested on: Staphylococcus aureus - Ciprofloxacin sensitive; assay: In vitro antimicrobial susceptibility test (MIC50); assay type: cell-based
Protocol: as §1, §2

[5] = tested on: Staphylococcus epidermidis - Ciprofloxacin resistant; assay: In vitro antimicrobial susceptibility test (MIC50); assay type: cell-based
Protocol: as §1, §2

[6] = tested on: Staphylococcus epidermidis - Ciprofloxacin sensitive; assay: In vitro antimicrobial susceptibility test (MIC50); assay type: cell-based
Protocol: as §1, §2

Streptococcus pneumonia = assay: In vitro antimicrobial susceptibility test (MIC50); assay type: cell-based; settings: Streptococcus pneumoniae, N = 10
Protocol: as §1, §2

Pseudomonas aeruginosa [7] = assay: Guinea pig model of acute otitis externa (AOE); assay type: in vivo; settings: for eradication of Pseudomonas: 0.3% composition
Protocol: Guinea pig ears were slightly abraded and 200 μl of bacterial culture (10^8 CFU) of P. aeruginosa were instilled into each ear. Ears were lavaged with saline and plated onto Pseudomonas isolation media. FIGS. 1a-1d summarize the results of these studies. […] Lower concentration finafloxacin compositions (0.03% and 0.003%) still achieved very substantial 5-6 log reductions of Pseudomonas in the model. […] Using a lower concentration composition (0.03%, shown in FIG. 1c) finafloxacin achieved a 4 log CFU reduction in the single dose study.

[8] = Ex vivo corneal perfusion model; assay type: in vitro ADME; settings: 0.1 mM test solutions at pH 7.3, ex vivo, FIG. 2
Protocol: FIG. 2 presents comparative corneal perfusion data for several quinolone antimicrobials (including finafloxacin) using an ex vivo model. 0.1 mM test solutions at pH 7.3 of four quinolone antimicrobials were compared in the model.

[9] = Ocular pharmacokinetic study following topical administration; assay type: in vivo, New Zealand white rabbits
Protocol: FIGS. 3 and 4 present the results of ocular pharmacokinetic studies following topical administration of finafloxacin and ciprofloxacin compositions. The studies utilized New Zealand white rabbits, and 45 μl of 0.3% test composition was instilled bilaterally.

Pseudomonas aeruginosa [10] = assay: Rabbit keratitis model (similar test); assay type: in vivo, New Zealand white rabbits; settings: finafloxacin compositions compared to CILOXAN
[11] = In vivo ototoxicity study, outer ear irritation; parameters: species or system Rabbit; settings: 0.3% pH 5.7, 0.3%, 0.6%, 1.0% pH 7.5 (0.3% Mg and BAC), 0.2 mL bid for 7 days followed by 7 day observations
Description: TABLE 3 below presents the results of toxicity testing performed in two animals models (chinchilla and rabbit).

[12] = at pH 5.8, N = 10, read-out: MIC50

SMILES | MIC50 (Enterococcus faecalis; at pH 5.8, N = 10) | MIC50 (Escherichia coli; at pH 5.8, N = 10) | MIC50 (Haemophilia influenzae; at pH 5.8) | MIC50 (Proteus mirabilis; [12]) | MIC50 ([1]; at pH 5.8, N = 11) | MIC50 ([2]; at pH 5.8, N = 14) | MIC50 (Pseudomonas otitidis; at pH 5.8) | MIC50 ([3]; at pH 5.8, N = 12) | MIC50 ([4]; at pH 5.8, N = 8) | MIC50 ([5]; at pH 5.8, N = 12) | MIC50 ([6]; at pH 5.8, N = 8) | MIC50 (Streptococcus pneumonia; at pH 5.8) | further results
N#Cc1c(N2C[C@@H]3NCCO[C@H]3C2)c(F)cc2c(=O)c(C(=O)O)cn(C3CC3)c12 [Finafloxacin, 8-cyano-1-cyclopropyl-6-fluoro-7-[(4aS,7aS)-hexahydropyrrolo[3,4-b]-1,4-oxazin-6(2H)-yl]-1,4-dihydro-4-oxo-3-quinolinecarboxylic acid] | 8 mg/L (≈ 20.1 µM) | 4 mg/L (≈ 10 µM) | 0.008 mg/L (≈ 0.0201 µM) | 0.25 mg/L (≈ 0.628 µM) | 16 mg/L (≈ 40.2 µM) | 1 mg/L (≈ 2.51 µM) | 0.125 mg/L (≈ 0.314 µM) | 4 mg/L (≈ 10 µM) | 0.016 mg/L (≈ 0.0402 µM) | 2 mg/L (≈ 5.02 µM) | 0.016 mg/L (≈ 0.0402 µM) | 0.25 mg/L (≈ 0.628 µM) | log reductions of Pseudomonas (Pseudomonas aeruginosa [7]; 0.003% composition, two doses, FIG. 1a): 5-6 log; effect of preservative (BAC) on efficacy against Pseudomonas (Pseudomonas aeruginosa [7]; 0.03% and 0.3% compositions with BAC compared to self-preserved compositions, FIG. 1d): does not affect the efficacy; CFU reduction (Pseudomonas aeruginosa [7]; 0.03% composition, single dose study, FIG. 1c): 4 log CFU; log reductions of Pseudomonas (Pseudomonas aeruginosa [7]; 0.03% composition, two doses, FIG. 1a): 5-6 log; performance compared to ciprofloxacin and ofloxacin compositions (Pseudomonas aeruginosa [7]; 0.03%, single dose study, FIG. 1c): performed as well as the ciprofloxacin composition and better than the ofloxacin composition; eradication of Pseudomonas (Pseudomonas aeruginosa [7]; single dose study, FIG. 1b): almost complete eradication of Pseudomonas; eradication of Pseudomonas (Pseudomonas aeruginosa [7]; two separate doses, FIG. 1a): almost complete eradication of Pseudomonas; performance compared to ciprofloxacin (Pseudomonas aeruginosa [7]; tests summarized in FIG. 1a, two doses): performed as well as ciprofloxacin; corneal perfusion [8]: better corneal perfusion properties than the ciprofloxacin test composition and demonstrates less perfusion relative to the ofloxacin test composition; aqueous humor tissue concentration ([9]; rabbit, in vivo): comparable at later time points; corneal stroma tissue concentration ([9]; rabbit, in vivo): comparable at later time points; Pseudomonas CFU reductions (Pseudomonas aeruginosa [10]): inferior Pseudomonas CFU reductions compared to CILOXAN®; outer ear irritation [11]: No indications; outer ear irritation ([11]; listed as finafloxacin): did not demonstrate inner or outer ear irritation
O=C(O)c1cn(C2CC2)c2cc(N3CCNCC3)c(F)cc2c1=O [Ciprofloxacin] | 128 mg/L (≈ 386 µM) | 256 mg/L (≈ 773 µM) | 0.016 mg/L (≈ 0.0483 µM) | 0.125 mg/L (≈ 0.377 µM) | 64 mg/L (≈ 193 µM) | 1 mg/L (≈ 3.02 µM) | 0.25 mg/L (≈ 0.754 µM) | 128 mg/L (≈ 386 µM) | 1 mg/L (≈ 3.02 µM) | 128 mg/L (≈ 386 µM) | 0.5 mg/L (≈ 1.51 µM) | 1 mg/L (≈ 3.02 µM) | corneal stroma tissue concentration ([9]; 45 μl of 0.3% test composition instilled bilaterally, topical, FIG. 3): greater concentrations immediately following instillation; aqueous humor tissue concentration ([9]; 45 μl of 0.3% test composition instilled bilaterally, topical, FIG. 4): greater concentrations immediately following instillation
CC1COc2c(N3CCN(C)CC3)c(F)cc3c(=O)c(C(=O)O)cn1c23 (stereo not shown) [Ofloxacin] | 16 mg/L (≈ 44.3 µM) | 512 mg/L (≈ 1420 µM) | 0.031 mg/L (≈ 0.0858 µM) | 0.5 mg/L (≈ 1.38 µM) | 256 mg/L (≈ 708 µM) | 4 mg/L (≈ 11.1 µM) | 1 mg/L (≈ 2.77 µM) | 64 mg/L (≈ 177 µM) | 1 mg/L (≈ 2.77 µM) | 32 mg/L (≈ 88.6 µM) | 1 mg/L (≈ 2.77 µM) | 2 mg/L (≈ 5.53 µM) | MIC50 (Enterococcus faecalis; at pH 7, N = 10): 128 mg/L (≈ 354 µM); MIC50 (Escherichia coli; at pH 7, N = 10): 16 mg/L (≈ 44.3 µM); MIC50 (Haemophilia influenzae; at pH 7): 0.031 mg/L (≈ 0.0858 µM); MIC50 (Proteus mirabilis; pH 7): 0.125 mg/L (≈ 0.346 µM); MIC50 ([1]; at pH 7, N = 11): 64 mg/L (≈ 177 µM); MIC50 ([2]; at pH 7, N = 14): 2 mg/L (≈ 5.53 µM); MIC50 (Pseudomonas otitidis; at pH 7): 0.25 mg/L (≈ 0.692 µM); MIC50 ([3]; at pH 7, N = 12): 32 mg/L (≈ 88.6 µM); MIC50 ([4]; at pH 7, N = 8): 0.25 mg/L (≈ 0.692 µM); MIC50 ([5]; at pH 7, N = 12): 16 mg/L (≈ 44.3 µM); MIC50 ([6]; at pH 7, N = 8): 0.25 mg/L (≈ 0.692 µM); MIC50 (Streptococcus pneumonia; at pH 7): 1 mg/L (≈ 2.77 µM)
